Results taken from ChEMBL document CHEMBL1201862, “PubChem BioAssay data set” (2004).
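Where inhibition never reached the appropriate level, the endpoint shown equals the highest concentration tested. Otherwise, values were interpolated linearly from a five-concentration, 48-hour dose response in 96-well plates. Here, GI50 denotes the concentration required for 50% inhibition of growth.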 Calls of active or inactive are those of the source. No stated cut-off is given here; in the data, active = GI50 up to about 1.1 µM and inactive = higher.

Assays:
Experiment in all cases: NCI tumour cell line growth inhibition, 48 h
MCF7 = test system: MCF7
NCI-H460 = test system: NCI-H460
UACC-62 = test system: UACC-62
U-251 = test system: U-251
A549 = test system: A549
CAKI-1 = test system: CAKI-1
HCT-15 = test system: HCT-15
HOP-92 = test system: HOP-92
NCI/ADR-RES = test system: NCI/ADR-RES
M14 = test system: M14
EKVX = test system: EKVX
NCI-H23 = test system: NCI-H23
SK-MEL-2 = test system: SK-MEL-2
ACHN = test system: ACHN
OVCAR-4 = test system: OVCAR-4
TK-10 = test system: TK-10
KM12 = test system: KM12
HCC 2998 = test system: HCC 2998
SN12C = test system: SN12C
786-0 = test system: 786-0

Structure (SMILES)	GI50 (MCF7)	GI50 (NCI-H460)	GI50 (UACC-62)	GI50 (U-251)	GI50 (A549)	GI50 (CAKI-1)	GI50 (HCT-15) [µM]	GI50 (HOP-92)	GI50 (NCI/ADR-RES)	GI50 (M14)	GI50 (EKVX)	GI50 (NCI-H23)	GI50 (SK-MEL-2)	GI50 (ACHN)	GI50 (OVCAR-4)	GI50 (TK-10)	GI50 (KM12)	GI50 (HCC 2998)	GI50 (SN12C)	GI50 (786-0)
COc1ccc(C(=C2C=CC=C2)c2ccc(OC)cc2)cc1	13.1 µM (inactive)	32 µM (inactive)	33.7 µM (inactive)	27.7 µM (inactive)	44.9 µM (inactive)	23 µM (inactive)	25.5	27.8 µM (inactive)	47.3 µM (inactive)	61.1 µM (inactive)	41 µM (inactive)	34.2 µM (inactive)	24.8 µM (inactive)	36.7 µM (inactive)	> 100 µM (inactive)	50.4 µM (inactive)	45.9 µM (inactive)	19.3 µM (inactive)	37.1 µM (inactive)	–
BrCC[N+]12CC[N+](CCBr)(CC1)C2	> 100 µM (inactive)	> 100 µM (inactive)	> 100 µM (inactive)	> 100 µM (inactive)	> 100 µM (inactive)	> 100 µM (inactive)	> 100	> 100 µM (inactive)	> 100 µM (inactive)	> 100 µM (inactive)	> 100 µM (inactive)	> 100 µM (inactive)	> 100 µM (inactive)	> 100 µM (inactive)	> 100 µM (inactive)	> 100 µM (inactive)	> 100 µM (inactive)	> 100 µM (inactive)	> 100 µM (inactive)	> 100 µM (inactive)
c1ccc(P2c3ccccc3Nc3ccccc32)cc1	72.1 µM (inactive)	62.1 µM (inactive)	37.8 µM (inactive)	56.1 µM (inactive)	42.5 µM (inactive)	23.5 µM (inactive)	> 100	30.1 µM (inactive)	> 100 µM (inactive)	66.2 µM (inactive)	34 µM (inactive)	72.9 µM (inactive)	36 µM (inactive)	86.5 µM (inactive)	38.8 µM (inactive)	> 100 µM (inactive)	37.2 µM (inactive)	> 100 µM (inactive)	41.1 µM (inactive)	> 100 µM (inactive)
COc1ccc(C2=NN(C(=O)c3ccc(Cl)cc3)C(O)(c3cc(F)c(Cl)cc3Cl)C2)cc1 (configuration not stated)	19 µM (inactive)	56.8 µM (inactive)	> 100 µM (inactive)	> 100 µM (inactive)	49.2 µM (inactive)	27.4 µM (inactive)	28.1	> 100 µM (inactive)	48.3 µM (inactive)	44.8 µM (inactive)	6.04 µM (inactive)	37.6 µM (inactive)	21.7 µM (inactive)	> 100 µM (inactive)	8.61 µM (inactive)	> 100 µM (inactive)	24.5 µM (inactive)	43.5 µM (inactive)	39.1 µM (inactive)	> 100 µM (inactive)
CC[N+]1(C)CCC(O)(c2ccccc2)C(C(=O)c2ccccc2)C1 (configuration not stated)	2.73 µM (inactive)	21.7 µM (inactive)	19 µM (inactive)	20.6 µM (inactive)	16 µM (inactive)	4.14 µM (inactive)	9.73	8.3 µM (inactive)	29.6 µM (inactive)	9.71 µM (inactive)	21.1 µM (inactive)	20.8 µM (inactive)	18.7 µM (inactive)	10.1 µM (inactive)	11.8 µM (inactive)	15.7 µM (inactive)	19.2 µM (inactive)	34 µM (inactive)	11.6 µM (inactive)	5.89 µM (inactive)
Oc1[nH]c(Nc2cccc(Br)c2)nc2ncnc1-2	> 100 µM (inactive)	> 100 µM (inactive)	> 100 µM (inactive)	–	> 100 µM (inactive)	> 100 µM (inactive)	> 100	52 µM (inactive)	> 100 µM (inactive)	> 100 µM (inactive)	> 100 µM (inactive)	> 100 µM (inactive)	23.6 µM (inactive)	> 100 µM (inactive)	15.5 µM (inactive)	87.1 µM (inactive)	> 100 µM (inactive)	> 100 µM (inactive)	–	> 100 µM (inactive)
